Laboratory results published in patent USRE41920E1, “Isobutylgaba and its derivatives for the treatment of pain” (Warner-Lambert Company LLC, priority 1997, dated 2010).

Legend:
[1] = system: tactile allodynia after incision of the rat plantaris muscle; experiment: Tactile allodynia in the rat postoperative pain model (von Frey hairs); type: in vivo; conditions: for effect on tactile allodynia scores in the contralateral paw: up to the highest dose tested; for MED, prevention of development of tactile allodynia: s.c. 1 hour before surgery
Procedure: Gabapentin or S-(+)-3-isobutylgaba was administered 1 hour before surgery. Morphine was administered 0.5 hour before surgery. Paw withdrawal thresholds to von Frey hair filaments were determined for both ipsilateral and contralateral paws. For clarity, contralateral paw data for drug-treated animals is not shown. Baseline (BL) measurements were taken before surgery, and withdrawal thresholds were reassessed 3, 25, 49, and 73 hours postsurgery. […] In FIG. 5, —●— is vehicle contralateral, —◯— is vehicle ispsilateral. For morphine (5a), —Δ— is 1 mg/kg, —▭— is 3, and —⋄— is 16.
(§1) S-(+)-3-Isobutylgaba (S-(+)-IBG) was administered 1 hour after surgery. Thermal paw withdrawal latencies, determined using the rat plantar test, and paw withdrawal thresholds to von Frey hair filaments, were determined in separate groups of animals for both ipsilateral and contralateral paws. For clarity only the ipsilateral paw data is shown. Baseline (BL) measurements were taken before surgery and withdrawal thresholds were reassessed up to 6 hours postsurgery.
(§2) Male Sprague-Dawley rats (250-300 g), obtained from Bantin and Kingmen, (Hull, U. K.) were used in all experiments. Before surgery, animals were housed in groups of 6 under a 12-hour light/dark cycle (lights on at 07 hour 00 minute) with food and water ad libitum. Postoperatively, animals were housed in pairs on “Aqua-sorb” bedding consisting of air laid cellulose (Beta Medical and Scientific, Sale, U.K.) under the same conditions. All experiments were carried out by an observer blind to drug treatments.
(§3) Animals were anaesthetized with 2% isofluorane and 1.4 […] mixture which was maintained during surgery via a nose cone. The plantar surface of the right hind paw was prepared with 50% ethanol, and a 1-cm longitudinal incision was made through skin and fascia, starting 0.5 cm from the edge of the heel and extending towards the toes. The plantaris muscle was elevated using forceps and incised longitudinally. The wound was closed using two simple sutures of braided silk with a FST-02 needle. The wound site was covered with Terramycin spray and Auromycin powder. […] The sutures were removed after 48 hours.
Tactile allodynia was measured using Semmes-Weinstein von Frey hairs (Stoelting, Ill., U.S.A.). Animals were placed into wire-mesh-bottom cages allowing access to the underside of their paws. The animals were habituated to this environment prior to the start of the experiment. Tactile allodynia was tested by touching the plantar surface of the animals hind paw with von Frey hairs in ascending order of force (0.7, 1.2, 1.5, 2, 3.6, 5.5, 8.5, 11.8, 15. 1, and 29 g) until a paw withdrawal response was elicited. Each von Frey hair was applied to the paw for 6 seconds, or until a response occurred. Once a withdrawal response was established, the paw was retested, starting with the next descending von Frey hair until no response occurred. The highest force of 29 g lifted the paw as well as eliciting a response, thus represented the cut-off point. Each animal had both hind paws tested in this manner. The lowest amount of force required to elicit a response was recorded as withdrawal threshold in grams. When compounds were administered before surgery, the same animals were used to study drug effects on tactile, allodynia, and thermal hyperalgasia, with each animal being tested for tactile allodynia 1 hour after thermal hyperalgesia. Separate groups of animals were used for examination of tactile allodynia and thermal hyperalgesia when S-(+)-3-isobutylgaba was administered after surgery.
(§4) Data obtained for thermal hyperalgesia was subjected to a one-way (analysis of variance) ANOVA followed by a Dunnett's t-test. Tactile allodynia results obtained with the von Frey hairs were subjected to an individual Mann Whitney t-test.

[2] = system: carrageenin-induced mechanical hyperalgesia; experiment: Carrageenin-induced mechanical hyperalgesia (rat paw pressure test); type: in vivo; conditions: for MED, antagonism of carrageenin-induced mechanical hyperalgesia: s.c. 3.5 hours after carrageenin
Procedure: Nociceptive pressure thresholds were measured in the rat using the paw pressure test. Baseline (BL) measurements were taken before animals were administered with 100 μL of 2% carrageenin by intraplantar injection. Results are shown as mean (±SEM) of 8 animals per group.
(§5) On the test Day, 2 to 3 baseline measurements were taken before rats (male Sprague-Dawley 70-90 g) were administered with 100 μL of 2% carrageenin by intraplantar injection into the right hind paw. Animals were dosed with the test drug after development of peak hyperalgesia. Separate groups of animals were used for the mechanical and thermal hyperalgesia studies.
Nociceptive pressure thresholds were measured in the rat paw pressure test using an analgesimeter (Ugo Basile). A cut-off point of 250 g was used to prevent any damage to the paw. The intraplantar injection of carrageenin produced a reduction in the nociceptive pressure threshold between 3 and 5 hours after injection, indicating induction of hyperalgesia. […] Gabapentin (3-300 mg/kg, s.c.) and CI-1008 (1-100 mg/kg, s.c.) dose-dependently antagonized the hyperalgesia, with respective MED of 10 and 3 mg/kg (FIG. 2).

[3] = system: thermal hyperalgesia after incision of the rat plantaris muscle; experiment: Thermal hyperalgesia in the rat postoperative pain model (rat plantar test); type: in vivo; conditions: for MED, block of development of thermal hyperalgesia: single dose s.c. before surgery (1 hour; morphine 0.5 hour)
Procedure: Gabapentin or S-(+)-3 isobutylgaba was administered 1 hour before surgery. Morphine was administered 0.5 hour before surgery. Thermal paw withdrawal latencies (PWL) were determined for both ipsilateral and contralateral paws using the rat plantar test. For clarity contralateral paw data for drug-treated animals is not shown. Baseline (BL) measurements were taken before surgery and PWL were reassessed 2, 24, 48, and 72 hours postsurgery. […] In the figure, —●— is vehicle contralateral, —◯— is vehicle ispsilateral, —Δ— is 1 mg/kg morphine, —▭— is 3, and —⋄— is 6 for morphine in 4a. In 4b, —Δ— is 3, —▭— is 10, and —⋄— is 30 for gabapentin. In 4c, —Δ— is 3 mg/kg, —▭— is 10, and —⋄— is 30 for S-(+)-isobutylgaba.
as §1, §2, §3
Thermal hyperalgesia was assessed using the rat plantar test (Ugo Basile, Italy) following a modified method of Hargreaves, et al., 1988. Rats were habituated to the apparatus which consisted of three individual perspex boxes on an elevated glass table. A mobile radiant heat source was located under the table and focused onto the hind paw and paw withdrawal latencies (PWL) were recorded. There was an automatic cut off point of 22.5 seconds to prevent tissue damage. PWLs were taken 2 to 3 times for both hind paws of each animal, the mean of which represented baselines for right and left hind paws. The apparatus was calibrated to give a PWL of approximately 10 seconds. PWL(s) were reassessed following the same protocol as above 2, 24, 48, and 72 hours postoperatively.
as §4

[4] = system: formalin-induced hind paw licking and biting; experiment: Rat paw formalin test; type: in vivo; conditions: for effect on the early phase of the formalin response / minimum effective dose (MED), block of licking/biting behavior during the late phase of the formalin response: s.c. 1 hour before formalin; for effect on the early phase of the formalin response: early phase (0-10 minutes), any of the doses tested; for minimum effective dose (MED), block of licking/biting behavior during the late phase of the formalin response: late phase (10-45 minutes)
Procedure: Test compounds were administered s.c. 1 hour before an intraplantar injection of 50 μL formalin. The time spent licking/biting the injected paw during the early and late phases was scored.
Male Sprague-Dawley rats (70-90 g) were habituated to perspex observation chambers (24 cm×24 cm×24 cm) for at least 15 minutes prior to testing. Formalin-induced hind paw licking and biting was initiated by a 50 μL subcutaneous injection of a 5% formalin solution (5% formaldehyde in isotonic saline) into the plantar surface of the left hind paw. Immediately following the formalin injection, licking/biting of the injected hind paw was scored in 5 minute bins for 60 minutes. The results are expressed as mean combined licking/biting time for the early phase (0-10 minutes) and late phase (10-45 minutes).

[5] = system: carrageenin-induced thermal hyperalgesia; experiment: Carrageenin-induced thermal hyperalgesia (Hargreaves model); type: in vivo, rat; conditions: s.c. 2.5 hours after carrageenin; PWL at 3 and 4 hours
Procedure: Nociceptive thermal thresholds were measured in the rat using the Hargreaves apparatus. Baseline (BL) measurements were taken before animal s were administered with 100 μL of 2% carrageenin by intraplantar injection. Results are shown as mean (±SEM) of 8 animals per group.
as §5
Baseline paw withdrawal latencies (PWL) were obtained for each rat using the Hargreaves model. Carrageenin was injected as described above. Animals were then tested for thermal hyperalgesia at 2 hours postcarrageenin administration. Gabapentin (10-100 mg/kg) or CI-1008 (1-30 mg/kg) was administered s.c. 2.5 hours after carrageenin, and PWL were reevaluated at 3 and 4 hours postcarrageenin administration. Carrageenin induced a significant reduction in paw withdrawal latency at 2, 3, and 4 hours following injection, indicating the induction of thermal hyperalgesia (FIG. 3). Gabapentin and CI-1008 dose-dependently antagonized the hyperalgesia with a MED of 30 and 3 mg/kg (FIG. 3).

[6] = 30 mg/kg, 1 hour before surgery
[7] = 30 mg/kg s.c. 1 hour before surgery

| SMILES | duration of prevention of development of tactile allodynia ([1]; highest dose of 6 mg/kg, 0.5 hour before surgery) [h] | effect on carrageenin-induced mechanical hyperalgesia ([2]; 3 mg/kg, s.c.) | effect on PWL of the contralateral paw in the thermal hyperalgesia test ([3]; 6 mg, s.c., data not shown) | duration of antagonism of development of thermal hyperalgesia ([3]; 1-6 mg/kg s.c. 0.5 hour before surgery) [h] | MED, block of development of thermal hyperalgesia [3] [mg/kg] | duration of blockade of the allodynia response [1, 6] [days] | effect on tactile allodynia scores in the contralateral paw [1] | MED, prevention of development of tactile allodynia [1] [mg/kg] | block of induction and maintenance of allodynia ([1]; summary statement) | MED, antagonism of carrageenin-induced mechanical hyperalgesia [2] [mg/kg] | effect on the early phase of the formalin response [4] | minimum effective dose (MED), block of licking/biting behavior during the late phase of the formalin response [4] [mg/kg] | duration of effect on thermal hyperalgesia [3, 7] | effect on PWL of the contralateral paw in the thermal hyperalgesia test ([3]; up to the highest dose tested) | block of induction and maintenance of hyperalgesia ([3]; summary statement) | MED, antagonism of carrageenin-induced thermal hyperalgesia [5] [mg/kg] | blockade of the late phase of the formalin response ([4]; 100 mg/kg s.c. 1 hour before formalin) | duration of effect on tactile allodynia ([1]; 10 mg/kg, 1 hour before surgery) [h] | duration of effect on tactile allodynia [1, 6] [h] | duration of prevention of the hyperalgesic response [3, 7] [h] |
| --- | --- | --- | --- | --- | --- | --- | --- | --- | --- | --- | --- | --- | --- | --- | --- | --- | --- | --- | --- | --- |
| CN1CC[C@]23c4c5ccc(O)c4O[C@H]2[C@@H](O)C=C[C@H]3[C@H]1C5 [Morphine] | 3 | complete blockade of hyperalgesia | increased PWL of the contralateral paw | 24 | 1 |  |  |  |  |  |  |  |  |  |  |  |  |  |  |  |
| CC(C)C[C@H](CN)CC(=O)O [CI-1008, (S)-3-(aminomethyl)-5-methylhexanoic acid] |  |  |  |  | 3 | 3 | did not affect | 10 | completely blocked | 3 | neither of the compounds affected the early phase | 10 | up to 3 days | did not affect PWL | completely blocked | 3 |  |  |  |  |
| CC(C)CC(CN)CC(=O)O (centres unmarked) [3-aminomethyl-5-methyl-hexanoic acid, 3-aminomethyl-5-methylhexanoic acid] |  |  |  |  |  |  |  |  |  |  |  |  |  |  |  |  | only a modest blockade |  |  |  |
| NCC1(CC(=O)O)CCCCC1 [Gabapentin, 1-(aminomethyl)-cyclohexaneacetic acid] |  |  |  |  | 30 |  | did not affect | 10 |  | 10 | neither of the compounds affected the early phase | 30 |  | did not affect PWL |  | 30 |  | 25 | 49 | 24 |
